In the supplement of paper PMC11208160:

assay: recombinant UMI read abundance after kanamycin selection (control-corrected) (log10(CPM+1)); higher = more efficient recombination; extreme values may be limits of the assay; sequences stand for … in AGTGCAGAGAAAATCGGCCAGTTTTCTCTGCCTGCAGTCCGCATGCCGTGGGACCCCTTGGGTTCTAACCTGTTGCCTAGATTTATGCAGCGGACTGCCTTTCTCCCAAAGTGATAAACCGG…AGGTTGGTTTCACT; site = the 11-nt donor
Procedure, shortened: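 After plating on IPTG (0.07 mM) plus kanamycin, or unselected, in two replicates, recombinant UMIs were PCR-amplified across the donor–target junction and sequenced. The cells were Escherichia coli co-electroporated with a UMI-tagged donor and donor-binding-loop pair library and a target plasmid with a fixed target and T7-inducible IS621 bridge recombinase. Values are log10(CPM+1), with CPM averaged over replicates and scaled by control-derived factors.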

Row | Sequence | recombinant UMI read abundance (log10)
1 | GGTGGTCCATGGACCGGTTTTCCCGGTAATCCGTATTTGCC (site GGTGGTCCTGG) | 0
2 | GGTGTCCCATGGACCGGTTTTCCCGGTAATCCGTATTTGAA (site GGTGTCCCTTT) | 0.0114
3 | GGTGTGGCATGGACCGGTTTTCCCGGTAATCCGTATTTGTT (site GGTGTGGCTAA) | 0.894
4 | GGTGTTTCATGGACCGGTTTTCCCGGTAATCCGTATTTGGT (site GGTGTTTCTAC) | 0.556
5 | GGTTAAACATGGACCGGTTTTCCCGGTAATCCGTATTTGGT (site GGTTAAACTAC) | 0.137
6 | GGTTAGGCATGGACCGGTTTTCCCGGTAATCCGTATTTGAG (site GGTTAGGCTCT) | 0.952
7 | GGTTATCCATGGACCGGTTTTCCCGGTAATCCGTATTTGCT (site GATTATCCTAG) | 0
8 | GGTTATCCATGGACCGGTTTTCCCGGTAATCCGTATTTGCT (site GCTTATCCTAG) | 0.196
9 | GGTTATCCATGGACCGGTTTTCCCGGTAATCCGTATTTGCT (site GGTTATCCTAG) | 0
10 | GGTTATCCATGGACCGGTTTTCCCGGTAATCCGTATTTGCT (site GTTTATCCTAG) | 0
11 | GGTTCGCCATGGACCGGTTTTCCCGGTAATCCGTATTTGCG (site GGTTCGCCTCG) | 0
12 | GGTTGCCCATGGACCGGTTTTCCCGGTAATCCGTATTTGAT (site GATTGCCCTAT) | 0.0175
13 | GGTTGCCCATGGACCGGTTTTCCCGGTAATCCGTATTTGAT (site GCTTGCCCTAT) | 0.0066
14 | GGTTGCCCATGGACCGGTTTTCCCGGTAATCCGTATTTGAT (site GGTTGCCCTAT) | 0.0592
15 | GGTTGCCCATGGACCGGTTTTCCCGGTAATCCGTATTTGAT (site GTTTGCCCTAT) | 0.0119
16 | GGTTTACCATGGACCGGTTTTCCCGGTAATCCGTATTTGGG (site GGTTTACCTCC) | 0.0308
17 | GTAAAAGCATGGACCGGTTTTCCCGGTAATCCGTATTTGCC (site GTAAAAGCTGG) | 1.27
18 | GTAAAGTCATGGACCGGTTTTCCCGGTAATCCGTATTTGCA (site GTAAAGTCTTG) | 2.95
19 | GTAACTCCATGGACCGGTTTTCCCGGTAATCCGTATTTGTC (site GTAACTCCTGA) | 1.71
20 | GTAAGAACATGGACCGGTTTTCCCGGTAATCCGTATTTGGC (site GTAAGAACTGC) | 2.33
21 | GTAAGAACATGGACCGGTTTTCCCGGTAATCCGTATTTGGC (site GTCAGAACTGC) | 0
22 | GTAAGAACATGGACCGGTTTTCCCGGTAATCCGTATTTGGC (site GTGAGAACTGC) | 1.09
23 | GTAAGAACATGGACCGGTTTTCCCGGTAATCCGTATTTGGC (site GTTAGAACTGC) | 1.13
24 | GTAAGCCCATGGACCGGTTTTCCCGGTAATCCGTATTTGTC (site GTAAGCCCTGA) | 1.98
25 | GTAAGCGCATGGACCGGTTTTCCCGGTAATCCGTATTTGGC (site GTAAGCGCTGC) | 3.26
26 | GTAAGTACATGGACCGGTTTTCCCGGTAATCCGTATTTGGA (site GTAAGTACTTC) | 1.17

Row | Sequence | recombinant UMI read abundance (log10)
27 | GTAATAACATGGACCGGTTTTCCCGGTAATCCGTATTTGGC (site GTAATAACTGC) | 2.43
28 | GTAATACCATGGACCGGTTTTCCCGGTAATCCGTATTTGCA (site GTAATACCTTG) | 0
29 | GTAATCGCATGGACCGGTTTTCCCGGTAATCCGTATTTGCG (site GTAATCGCTCG) | 1.95
30 | GTAATCGCATGGACCGGTTTTCCCGGTAATCCGTATTTGCG (site GTACTCGCTCG) | 0.0396
31 | GTAATCGCATGGACCGGTTTTCCCGGTAATCCGTATTTGCG (site GTAGTCGCTCG) | 0.00978
32 | GTAATCGCATGGACCGGTTTTCCCGGTAATCCGTATTTGCG (site GTATTCGCTCG) | 0.00488
33 | GTAATGGCATGGACCGGTTTTCCCGGTAATCCGTATTTGAA (site GTAATGGCTTT) | 2.26
34 | GTAATTTCATGGACCGGTTTTCCCGGTAATCCGTATTTGCA (site GTAATTTCTTG) | 1.4
35 | GTACACGCATGGACCGGTTTTCCCGGTAATCCGTATTTGCT (site GTACACGCTAG) | 2.16
36 | GTACATTCATGGACCGGTTTTCCCGGTAATCCGTATTTGAT (site GTACATTCTAT) | 2.04
37 | GTACGCCCATGGACCGGTTTTCCCGGTAATCCGTATTTGAT (site GTACGCCCTAT) | 0.747
38 | GTACGCCCATGGACCGGTTTTCCCGGTAATCCGTATTTGCA (site GTACGCCCTTG) | 1.16
39 | GTACGCTCATGGACCGGTTTTCCCGGTAATCCGTATTTGAA (site GTACGCTCTTT) | 2.11
40 | GTACTAACATGGACCGGTTTTCCCGGTAATCCGTATTTGGC (site GTACTAACTGC) | 2.4
41 | GTACTACCATGGACCGGTTTTCCCGGTAATCCGTATTTGTG (site GTACTACCTCA) | 0.00602
42 | GTACTCGCATGGACCGGTTTTCCCGGTAATCCGTATTTGTC (site GTACTCGCTGA) | 2.42
43 | GTAGATACATGGACCGGTTTTCCCGGTAATCCGTATTTGCC (site GTAGATACTGG) | 0
44 | GTAGCGACATGGACCGGTTTTCCCGGTAATCCGTATTTGAG (site GTAGCGACTCT) | 1.28
45 | GTAGGAACATGGACCGGTTTTCCCGGTAATCCGTATTTGAC (site GTAGGAACTGT) | 2.59
46 | GTAGGAACATGGACCGGTTTTCCCGGTAATCCGTATTTGAC (site GTAGGCACTGT) | 1.3
47 | GTAGGAACATGGACCGGTTTTCCCGGTAATCCGTATTTGAC (site GTAGGGACTGT) | 2.24
48 | GTAGGAACATGGACCGGTTTTCCCGGTAATCCGTATTTGAC (site GTAGGTACTGT) | 1.56
49 | GTAGGCACATGGACCGGTTTTCCCGGTAATCCGTATTTGAC (site GTAGGAACTGT) | 1.1
50 | GTAGGCACATGGACCGGTTTTCCCGGTAATCCGTATTTGAC (site GTAGGCACTGT) | 2.05
51 | GTAGGCACATGGACCGGTTTTCCCGGTAATCCGTATTTGAC (site GTAGGGACTGT) | 0
52 | GTAGGCACATGGACCGGTTTTCCCGGTAATCCGTATTTGAC (site GTAGGTACTGT) | 0.00895
